Here are results for six compounds from US10220051B2, “Combination of DNA repair inhibition with bendamustine or gemcitabine in the treatment of cancer” (Institute for Cancer Research, priority 2012, dated 2019).

Type in all cases: cell-based
Assay [1] concerns Hela cells. Put plainly: Cell viability MTS assay, Hela. The conditions noted are these: for cell viability, BDM alone: 3.125-200 μM, 48 h continuous. The method, then: (§1) Cell viability and apoptosis assays. Hela cells were seeded into 96 well plates at a density of 1500 cells per well. Cells were treated with BDM (3.125-200 μM) for 24 h. After this time cells were additionally treated either with UCN-01 (100 nM), Chk2 inhibitor (100 nM) or Gö6976 (200 nM) for an additional 24 h. MTS reagent (CellTiter 96® AQueous Proliferation Assay, Promega) was added to each well for 4 h before the absorbance values at 490 nm was read. Experiments were conducted in triplicate, 3 independent times. Data presented are the average absorbance values, relative to control±SD. For apoptosis determination, cells seeded and treated as stated above were stained with Guava Nexin Reagent® (Millipore). Analysis was conducted using the Easycyte module and Cytosoft Software® (Millipore). Experiments were conducted 3 independent times, collecting 2000 events each time. Data shown is the average±SD.
In general terms: Tetrazolium assays rely on reduction of a dye to a coloured formazan, in cell work by metabolically active cells.

The subject of assay [2] is Hela cells. In words: Immunofluorescence of DNA damage foci (γ-H2AX, 53BP1, RPA). The method, then:
(§2) Immunofluorescence. Cells were grown on coverslips, treated with the indicated drugs, fixed and stained. To detect DNA damage induction and repair, antibodies against 53BP1 (Bethyl) and γ-H2AX (Upstate) were used with Alexa Fluor-conjugated secondary antibodies (Invitrogen). All cells were counter-stained with DAPI (Molecular probes). Images were captured using a 40× or 100× objective mounted on an inverted microscope (Eclipse TE2000S; Nikon) with a CCD camera (Photometrics Cascade 512F; Roper Scientific) powered by NIS Elements AR (version 3.10) software (Nikon). For quantitative analysis, individual nuclei were identified using DAPI staining and used to define region of interests (ROI), which were then transposed onto other channels. The sum intensity per nuclei from a minimum of 50 nuclei was averaged±SEM.

Assay [3] deals with SK28 cells. Put plainly: SK28 cell viability (MTS assay). Particulars: SK28, concentration-dependent, quadruplicate. The method, then:
(§3) Tests were conducted in quadruplicate.

For assay [4], the system named is SK28 cells. Put plainly: SK28 clonogenic assay. The conditions noted are these: SK28, concentration-dependent, quadruplicate. The method, then: as §3
Assay [5] deals with Hela cells. In words: Apoptosis assay (Guava Nexin Reagent). The conditions noted are these: BDM 200 μM followed by Chk1 inhibitor; p<0.01 vs. control. The method, then:
as §1

The subject of assay [6] is Hela cells. Put plainly: Cell cycle profile by FACS (DNA content), Hela. The method, then:
(§4) DNA content analysis via flow cytometry. Following indicated drug treatments, cells were fixed with 70% ethanol. For analysis, cells were stained with propidium iodide, RNase A and sodium citrate. Cells were incubated at 37° C. for 30 minutes before being analyzed using a Becton Dickinson single laser three-fluorescence FACScan flow analyzer and Cell Quest software (Becton Dickinson). DNA content was acquired from 10,000 events and FlowJo software was used to process the data.

In assay [7] the test system is PANC1, BXPC3, MCF-7, MDA-MB-435, OVCAR 5 and 10 cells. In words: Cell cycle profile by FACS, panel of cancer cell lines. Particulars: 24 h. The method, then:
as §4
For orientation: A flow cytometer gives signals particle by particle.

Assay [8] deals with U2932 B cell lymphoma cells. Put plainly: Cell cycle profile by FACS, U2932. The method, then:
as §4

The test system of assay [9] is Hela cells. In words: EdU incorporation (DNA synthesis). Particulars: EdU 10 μM, 12 h. The method, then: EdU incorporation. Hela cells were treated with nocodazole for 14 h after which time mitotic cells were collected by mechanical shake-off. Cells were washed twice with medium and re-plated. BDM and EdU (10 μM) (Click-IT™ EdU imaging kit, Invitrogen) were added 2 h later, when the cells were fully adherent and still in G1, and incubated for an additional 12 h. Cells were fixed and stained according to the manufacturer's protocol. Quantification of EdU incorporation was performed as described for antibody detection.

Assay [10] deals with Hela cells. Put plainly: Chk1 phosphorylation (Ser-345) in lysates. The method, then:
Hela cells were treated for 24 or 48 h continuous treatment or of either 50 or 200 μM BDM or 24 h followed by 24 h in the absence of drugs. […] Quantification of the average fluorescence per nucleus is shown on the right. For γ-H2AX: *P=8.9×10^−28 vs. untreated 24 h; **P=2.1×10^−31 vs. untreated 24 h; †P=5.2×10^−45 vs. untreated 48 h. For 53BP1: *P=4.3×10^−20 vs. untreated 24 h; **P=4.2×10^−41 vs. untreated 24 h; †P=2.0×10^−52 vs. untreated 48 h. For RPA: *P=2.5×10^−16 vs. untreated 24 h; **P=2.8×10^−52 vs. untreated 24 h; †P=3.3×10-^58 vs. untreated 48 h. […] Total Chk1 and alpha tubulin were used to determine loading.

For assay [11], the system named is mouse embryonic fibroblasts (WT and TDG−/−). Put plainly: γ-H2AX immunofluorescence in WT and TDG−/− MEFs. The method, then:
as §2

In assay [12] the test system is Hela cells. Put plainly: Clonogenic assay, Hela. The conditions noted are these: for colony formation relative to control (100%): washout, ~10 days. The method, then: Clonogenic assay. Hela cells were seeded into 6 well plates at a density of 1000 cells per well. Cells were treated for 24 h. Cells were then treated with and without UCN-01 (100 nM) for 3 h. All drugs were washed out and cells were left to grow for approximately 10 days. Cells were fixed using Acetic acid:methanol:H2O, (10:10:80), dried and stained with 0.4% crystal violet in 20% ethanol. Qualitative images of representative results are presented. For quantification, colonies were solubilized (1% acetic acid, 30% ethanol) and absorbance values at 595 nm were read. Values are expressed as a percentage relative to untreated cells, with untreated cells set to 100%±SD. Experiments were conducted in triplicate, three independent times. Student's two-tailed unpaired t test was conducted for statistics.

For assay [13], the system named is Hela cells stably expressing GFP:histone H2B. In words: Time-lapse video microscopy of mitosis. The method, then:
Time-lapse video microscopy. Hela cells stably expressing GFP:histone H2B were seeded into 6 well plates and synchronized in S phase using thymidine (2 mM). […] Where appropriate, UCN-01 (100 nM) was added to wells before being supplemented with HEPES (25 mM), layered with mineral oil (Sigma) and placed into a housing chamber which maintained the temperature at 37° C. Using a Nikon TE2000 microscope (Nikon) controlled by MetaMorph software (Molecular Devices), brightfield and fluorescent images were captured every 5 minutes for up to 48 h. Individual movies were analyzed manually and a minimum of 100 cells per treatment scored for the indicated measurements. For montages, selected frames representing different cell morphologies are presented.

Entries after “also recorded” stand apart in the source; their conditions may differ.

Consider `NC(=O)c1ccc2nc(-c3ccc(Oc4ccc(Cl)cc4)cc3)[nH]c2c1` [pharmacological inhibitor of Chk2], for which the “sensitization to killing by BDM” value in the assay on Hela cells [1] (any BDM concentration (3.125-200 μM), Chk2 inhibitor 100 nM) is on record as “did not sensitize to killing by any concentration of BDM”.

Consider `O=c1cc(N2CCOCC2)oc2c(-c3cccc4c3sc3ccccc34)cccc12` [NU7441], for which the “repair of BDM-induced damage (γ-H2AX)” value in the assay on Hela cells [2] (50 μM BDM + NU7441 10 μM, 48 h) is “did not block repair of BDM-induced damage”.

With `C=CC1=C(C(=O)O)N2C(=O)[C@@H](NC(=O)/C(=N\OCC(=O)O)c3csc(N)n3)[C@H]2SC1` [cefixime, (6R,7R)-7-{[2-(2-amino-1,3-thiazol-4-yl)-2-(carboxymethoxyimino)acetyl]amino}-3-ethenyl-8-oxo-5-thia-1-azabicyclo[4.2.0]oct-2-ene-2-carboxylic acid], the cell viability result in the assay with SK28 cells [3] is on record as “reduce cell viability”. Besides, the “clonogenic capacity / colony-forming ability” value with SK28 cells [4] was “reduce cell viability and clonogenic capacity; also recorded: reduction of clonogenic capacity”.

As to `CON` [MX, methoxyamine], the “γ-H2AX foci, combination with BDM” value with Hela cells [2] (50 μM BDM + methoxyamine 6 mM, 48 h) was “significantly higher levels of γ-H2AX foci than BDM alone”.

On to `Cn1c2ccccc2c2c3c(c4c5ccccc5n(CCC#N)c4c21)CNC3=O` [Gö6976], for which the “percentage of apoptotic cells” value in the assay on Hela cells [5] is listed as “exhibited an increase in the percentage of apoptotic cells”.

Consider `Cn1c(CCCC(=O)O)nc2cc(N(CCCl)CCCl)ccc21` [BDM, Bendamustine], for which the cell cycle profile result in the assay on Hela cells [6] (50 μM BDM 24 h, then another 24 h with or without BDM) is listed as “displayed a normal cell cycle profile”; in the assay on Hela cells [6] (Hela synchronized in G1, 200 μM BDM, 24 h), “arrested in S phase”; with Hela cells [6] (Hela synchronized in G1, 25-100 μM BDM, 24 h) it was “accumulated as 4N DNA content indicating a G2/M delay”. Further, the cell cycle arrest entry in the assay on Hela cells [6] (200 μM BDM, after washout or 48 h continuous) is “maintained after drug washout, or 48 h continuous treatment”; in assay [7] (50 μM BDM), “G2 arrest”; in assay [7] (200 μM BDM) it was “S phase arrest”; in assay [8] (10 μM BDM), “induced a G2 arrest”; in [8] (25 μM BDM) it was “S phase arrest”; in [8] (50 μM BDM), “induced an S phase arrest”. Besides, the “EdU incorporation relative to untreated (100%)” value in the assay with Hela cells [9] (50 μM BDM) is 98.0±4.1%; with Hela cells [9] (200 μM BDM), 64.7±2.6%. Further, the “γ-H2AX, RPA and 53BP1 foci” value with Hela cells [2] (50 μM BDM 24 h, then 24 h after washout) is “reduced to levels comparable to untreated cells”; with Hela cells [2] (50 μM BDM, 24 h), “accumulated γ-H2AX, RPA and 53BP1 foci”; in the assay on Hela cells [2] (200 μM BDM 24 h, after drug removal), “foci persisted after drug was removed”; with Hela cells [2] (200 μM BDM, 24 h), “an increase in γ-H2AX, RPA and 53BP1”. Further, the “γ-H2AX, RPA and 53BP1 staining” value with Hela cells [2] (50 μM BDM, 48 h continuous) is given as “reduced to control cells”. For the same compound, the DNA damage foci entry with Hela cells [2] (200 μM BDM, 48 h continuous) is recorded as “not reduced”. Besides, in the assay on Hela cells [2] (dose dependence), the “53BP1, RPA and γ-H2AX nuclear foci” value is “increased in a dose-dependent manner”. Also, the “Chk1 phosphorylation (Ser-345)” value was “no signal was observed” with Hela cells [10] (50 μM BDM, 48 h); “detectable pChk1 was still present” in the assay with Hela cells [10] (200 μM BDM, 48 h); “dose-dependently phosphorylated” in the assay on Hela cells [10] (24 h treatment). For the same compound, the “γ-H2AX staining, TDG−/− MEFs versus wildtype MEFs” value in assay [11] (10 μM BDM, 24 h) was “increased γ-H2AX staining”. Besides, the “repair of DNA damage, TDG−/− MEFs versus wildtype MEFs” value in [11] (48 h continuous treatment) was “reduced ability to repair the DNA damage”. Moreover, the entries for the “colony formation relative to control (100%)” value in the assay with Hela cells [12] (50 μM BDM 24 h) and with Hela cells [12] (200 μM BDM 24 h) were 87.8±11.2% and 3.5±1.3%, respectively. In the assay on Hela cells [12] (200 uM BDM), the “reduction in clonogenic survival” value was 95%. The “cell viability, BDM alone” value in the assay on Hela cells [1] is “did not reduce cell viability as compared to control treatment”; in the assay with Hela cells [1] (listed as bendamustine), “not particularly effective at killing Hela cells”. Besides, the “fate of cells forced into mitosis” value in assay [13] (50 μM BDM + Chk1 inhibition) is “progress through mitosis relatively normally”; in assay [13] (200 μM BDM + Chk1 inhibition), “majority failing to exit and instead die in mitosis”. Moreover, the “percentage of cells entering mitosis” value in [13] (50 μM BDM, over 24 h) was “caused a reduction in the percentage of cells entering mitosis”. The mitotic index result in assay [13] (200 μM BDM) was “reduced mitotic index”. Moreover, the mitotic figures result in assay [13] (200 μM BDM + Chk1 inhibition) is given as “highly abnormal”.
